Earlier results in US20260315500A1, “SOLID CANNABINOID COMPOSITION FOR PARENTERAL USE” (Bender Analytical Holding B.V., priority 2023, published 2026).
Values after ≈ are worked out from the molar mass of the structure shown.

How the values were obtained:
neuronal and glial cells = details: preclinical; functional, neuroimaging, histologic and biochemical studies
[1] = 23° C.

In the case of C=C(C)[C@@H]1CCC(C)=C[C@H]1c1c(O)cc(CCCCC)cc1O [Cannabidiol], the neuroprotective effects (neuronal and glial cells) is listed as “protects neuronal and glial cells, with a remarkable effect on preserving normal myelinogenesis”.
For CCCCCc1cc(O)c2c(c1)OC(C)(C)[C@@H]1CCC(C)=C[C@@H]21 [Tetrahydrocannabinol (THC), Tetrahydrocannabinol], the water solubility [1] is given as 2.8 µg/mL (≈ 8.9 µM).
